Measured values taken from ChEMBL document CHEMBL1153958, “Design and optimization of selective serotonin re-uptake inhibitors with high synthetic accessibility. Part 1” (Bioorg Med Chem Lett, 2009).

What was measured:
[1] = target: Sodium-dependent serotonin transporter (Homo sapiens, UniProt P31645); experiment: Inhibition of radiolabeled serotonin reuptake at human SERT expressed in HEK293 cells; type: cell-based
[2] = target: Sodium-dependent dopamine transporter (Homo sapiens, UniProt Q01959); experiment: Inhibition of radiolabeled dopamine reuptake at human DAT expressed in HEK293 cells; type: cell-based
Sequence of Sodium-dependent dopamine transporter (Q01959 whole entry): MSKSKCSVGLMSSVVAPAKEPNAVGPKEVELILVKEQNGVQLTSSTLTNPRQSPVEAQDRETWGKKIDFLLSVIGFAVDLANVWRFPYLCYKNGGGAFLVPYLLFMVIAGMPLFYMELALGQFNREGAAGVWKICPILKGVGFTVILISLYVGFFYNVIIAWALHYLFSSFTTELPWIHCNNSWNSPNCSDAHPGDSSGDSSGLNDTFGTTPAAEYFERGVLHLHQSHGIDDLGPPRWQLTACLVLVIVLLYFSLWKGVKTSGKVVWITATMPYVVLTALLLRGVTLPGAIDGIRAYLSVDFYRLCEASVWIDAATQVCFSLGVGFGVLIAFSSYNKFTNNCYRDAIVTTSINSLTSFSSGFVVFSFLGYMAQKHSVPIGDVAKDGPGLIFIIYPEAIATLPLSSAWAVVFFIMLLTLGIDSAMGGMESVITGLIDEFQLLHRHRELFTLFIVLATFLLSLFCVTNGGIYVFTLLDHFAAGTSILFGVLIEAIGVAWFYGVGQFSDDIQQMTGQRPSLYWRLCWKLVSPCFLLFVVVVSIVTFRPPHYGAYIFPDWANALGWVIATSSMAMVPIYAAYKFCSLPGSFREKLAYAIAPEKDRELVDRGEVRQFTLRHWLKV

[3] = target: Voltage-gated inwardly rectifying potassium channel KCNH2 (Homo sapiens, UniProt Q12809); experiment: Displacement of [3H]dofetilide from human ERG expressed in HEK293 cells
Sequence of Voltage-gated inwardly rectifying potassium channel KCNH2 (Q12809 whole entry): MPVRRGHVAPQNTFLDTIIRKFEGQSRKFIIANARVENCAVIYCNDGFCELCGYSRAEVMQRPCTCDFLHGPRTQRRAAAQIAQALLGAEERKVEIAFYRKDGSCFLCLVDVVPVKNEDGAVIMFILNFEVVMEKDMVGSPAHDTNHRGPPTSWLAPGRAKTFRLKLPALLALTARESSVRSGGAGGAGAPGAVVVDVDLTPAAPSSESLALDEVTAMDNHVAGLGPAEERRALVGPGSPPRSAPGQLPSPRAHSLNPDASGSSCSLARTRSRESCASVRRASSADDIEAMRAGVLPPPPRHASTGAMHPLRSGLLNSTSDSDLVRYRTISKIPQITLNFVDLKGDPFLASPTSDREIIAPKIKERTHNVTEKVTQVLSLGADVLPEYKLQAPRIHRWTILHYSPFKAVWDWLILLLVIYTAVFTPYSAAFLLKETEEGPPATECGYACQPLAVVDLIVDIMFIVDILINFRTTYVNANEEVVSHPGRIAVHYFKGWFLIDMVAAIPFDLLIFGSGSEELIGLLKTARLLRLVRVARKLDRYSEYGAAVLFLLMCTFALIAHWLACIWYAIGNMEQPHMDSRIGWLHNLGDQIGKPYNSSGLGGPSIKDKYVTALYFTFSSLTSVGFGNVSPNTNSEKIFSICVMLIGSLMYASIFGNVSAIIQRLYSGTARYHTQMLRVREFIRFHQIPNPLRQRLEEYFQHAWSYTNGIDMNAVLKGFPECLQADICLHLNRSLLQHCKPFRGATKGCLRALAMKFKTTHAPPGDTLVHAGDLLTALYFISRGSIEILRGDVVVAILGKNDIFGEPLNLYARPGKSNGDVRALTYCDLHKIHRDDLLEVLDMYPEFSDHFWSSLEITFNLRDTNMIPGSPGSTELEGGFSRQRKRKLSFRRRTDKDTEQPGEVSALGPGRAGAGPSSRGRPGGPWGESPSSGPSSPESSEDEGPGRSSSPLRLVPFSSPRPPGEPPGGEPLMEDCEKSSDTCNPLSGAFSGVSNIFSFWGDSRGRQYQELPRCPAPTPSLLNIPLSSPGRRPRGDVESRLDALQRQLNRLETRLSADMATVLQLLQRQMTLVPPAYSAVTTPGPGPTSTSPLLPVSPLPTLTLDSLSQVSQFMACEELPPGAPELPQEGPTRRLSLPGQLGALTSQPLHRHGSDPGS

[4] = target: Sodium-dependent noradrenaline transporter (Homo sapiens, UniProt P23975); experiment: Inhibition of radiolabeled noradrenaline reuptake at human NET expressed in HEK293 cells; type: cell-based
Sequence of Sodium-dependent noradrenaline transporter (P23975 whole entry): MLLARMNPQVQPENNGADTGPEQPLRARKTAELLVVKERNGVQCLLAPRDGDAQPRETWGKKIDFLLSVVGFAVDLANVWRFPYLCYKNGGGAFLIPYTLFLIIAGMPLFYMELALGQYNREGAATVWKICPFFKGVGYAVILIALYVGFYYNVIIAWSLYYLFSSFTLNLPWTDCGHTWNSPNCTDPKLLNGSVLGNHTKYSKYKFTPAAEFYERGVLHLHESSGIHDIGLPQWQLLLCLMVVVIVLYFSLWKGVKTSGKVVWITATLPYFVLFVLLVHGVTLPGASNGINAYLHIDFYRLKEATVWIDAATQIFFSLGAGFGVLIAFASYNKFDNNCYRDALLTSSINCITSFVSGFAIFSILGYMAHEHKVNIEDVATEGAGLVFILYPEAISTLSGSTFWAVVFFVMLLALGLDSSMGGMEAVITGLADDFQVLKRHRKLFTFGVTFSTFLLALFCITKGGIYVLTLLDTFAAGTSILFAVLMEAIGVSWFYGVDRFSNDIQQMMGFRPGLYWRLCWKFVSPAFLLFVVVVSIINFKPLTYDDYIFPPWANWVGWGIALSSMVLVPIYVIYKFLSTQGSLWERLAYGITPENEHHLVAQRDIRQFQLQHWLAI

[5] = target: T1, 5-hydroxytryptamine receptor 3A (Homo sapiens, UniProt P46098); experiment: Displacement of [3H]granisetron from human 5HT3 receptor expressed in HEK293 cells; type: cell-based
T1 sequence (P46098 whole entry): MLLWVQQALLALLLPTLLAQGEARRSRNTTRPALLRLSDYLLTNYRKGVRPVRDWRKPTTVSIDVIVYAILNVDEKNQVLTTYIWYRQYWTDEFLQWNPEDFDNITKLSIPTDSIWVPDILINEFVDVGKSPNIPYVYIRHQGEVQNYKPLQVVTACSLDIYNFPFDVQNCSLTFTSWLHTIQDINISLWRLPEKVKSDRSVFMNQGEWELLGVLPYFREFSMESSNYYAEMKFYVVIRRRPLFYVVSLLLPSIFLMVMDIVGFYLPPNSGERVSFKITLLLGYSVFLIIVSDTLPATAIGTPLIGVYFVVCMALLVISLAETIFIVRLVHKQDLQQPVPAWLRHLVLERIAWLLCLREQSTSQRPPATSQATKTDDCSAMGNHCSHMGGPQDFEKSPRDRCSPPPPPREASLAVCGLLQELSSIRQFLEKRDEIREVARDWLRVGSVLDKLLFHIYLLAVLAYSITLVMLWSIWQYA

Sequence of Sodium-dependent serotonin transporter (P31645 whole entry): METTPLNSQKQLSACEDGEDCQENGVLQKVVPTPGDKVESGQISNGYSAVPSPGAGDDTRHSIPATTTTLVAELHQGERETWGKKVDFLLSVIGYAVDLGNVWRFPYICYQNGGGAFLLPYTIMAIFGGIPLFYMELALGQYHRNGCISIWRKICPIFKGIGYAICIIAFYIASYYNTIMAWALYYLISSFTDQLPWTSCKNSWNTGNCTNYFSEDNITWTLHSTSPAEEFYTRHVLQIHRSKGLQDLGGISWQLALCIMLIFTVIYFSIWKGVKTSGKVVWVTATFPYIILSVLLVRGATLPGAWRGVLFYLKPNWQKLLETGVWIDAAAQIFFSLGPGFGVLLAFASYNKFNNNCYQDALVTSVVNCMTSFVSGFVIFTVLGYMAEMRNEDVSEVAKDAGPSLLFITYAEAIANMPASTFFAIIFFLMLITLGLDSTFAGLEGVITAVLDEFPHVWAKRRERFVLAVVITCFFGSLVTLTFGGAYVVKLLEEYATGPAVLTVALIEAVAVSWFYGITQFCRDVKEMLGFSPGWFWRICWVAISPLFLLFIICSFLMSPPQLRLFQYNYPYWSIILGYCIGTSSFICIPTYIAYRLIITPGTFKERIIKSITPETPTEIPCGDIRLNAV

## Cc1c(CCN2CCNCC2)ccc2cc(F)ccc12
[1]
  IC50: 0.004 µM
[2]
  IC50: > 31 µM
[3]
  Ki: 10.1 µM
[4]
  IC50: 8.4 µM

## N#Cc1ccc2ccc(OCC3CCNCC3)cc2c1
[1]
  IC50: 0.003 µM
[2]
  IC50: 8.8 µM
[3]
  Ki: 3.5 µM
[4]
  IC50: 4.4 µM
[5]
  Ki: 0.404 µM

## c1ccc2cc(CO[C@H]3CCNC3)ccc2c1
[1]
  IC50: 0.023 µM
[2]
  IC50: 15 µM
[3]
  Ki: 15.7 µM
[4]
  IC50: 2.9 µM

## CCN([C@@H]1CCNC1)S(=O)(=O)c1ccc2ccccc2c1
[1]
  IC50: 0.03 µM
[2]
  IC50: > 30 µM
[4]
  IC50: 2.6 µM

## c1ccc2cc(OCC3CCNCC3)ccc2c1
[1]
  IC50: 0.008 µM
[2]
  IC50: > 7 µM
[4]
  IC50: 1.8 µM
[5]
  Ki: 0.311 µM

## Fc1ccc2cc(CCN3CCNCC3)ccc2c1
[1]
  IC50: 0.011 µM
[2]
  IC50: 24 µM
[3]
  Ki: 8.5 µM
[4]
  IC50: 10.5 µM

## N#Cc1ccc2cc(OC[C@H]3CCNC3)ccc2c1
[1]
  IC50: 0.037 µM
[4]
  IC50: 0.2 µM

## N#Cc1ccc2cc(OCC3CCNCC3)ccc2c1
[1]
  IC50: 0.015 µM
[2]
  IC50: 6 µM
[4]
  IC50: 1.9 µM

## CN([C@@H]1CCNC1)S(=O)(=O)c1ccc2ccccc2c1
[1]
  IC50: 0.138 µM
[4]
  IC50: 3 µM

## CN([C@H]1CCNC1)S(=O)(=O)c1ccc2ccccc2c1
[1]
  IC50: > 0.4 µM

## CN(Cc1ccc2ccccc2c1)[C@@H]1CCNC1
[1]
  IC50: 0.119 µM
[2]
  IC50: 3 µM
[4]
  IC50: 3 µM

## c1ccc2cc(CO[C@@H]3CCNC3)ccc2c1
[1]
  IC50: 0.02 µM
[2]
  IC50: 3.8 µM
[3]
  Ki: 16.4 µM
[4]
  IC50: 1.2 µM

## N#Cc1ccc2cc(CO[C@H]3CCNC3)ccc2c1
[1]
  IC50: 0.003 µM
[2]
  IC50: 0.861 µM
[3]
  Ki: 4.5 µM
[4]
  IC50: 6.8 µM

## Fc1ccc2cc(CO[C@@H]3CCNC3)ccc2c1
[1]
  IC50: 0.004 µM
[2]
  IC50: 2.1 µM
[3]
  Ki: 10.3 µM
[4]
  IC50: 10.6 µM

## CCN(C1CCNCC1)S(=O)(=O)c1ccc2ccccc2c1
[1]
  IC50: > 0.4 µM
[2]
  IC50: > 10 µM
[4]
  IC50: > 10 µM

## CCCCN(Cc1ccc2ccccc2c1)[C@H]1CCNC1
[1]
  IC50: 0.0003 µM
[2]
  IC50: 0.088 µM
[4]
  IC50: 0.08 µM

## CC(C)CN(Cc1ccc2ccccc2c1)[C@@H]1CCNC1
[1]
  IC50: 0.005 µM
[2]
  IC50: 0.066 µM
[4]
  IC50: 0.08 µM

## c1ccc2cc(CCN3CCNCC3)ccc2c1
[1]
  IC50: 0.088 µM

## N#Cc1ccc2cc(OC[C@@H]3CCNC3)ccc2c1
[1]
  IC50: 0.042 µM
[4]
  IC50: 0.772 µM

## CN(Cc1ccc2ccccc2c1)[C@H]1CCNC1
[1]
  IC50: 0.013 µM
[2]
  IC50: 7.7 µM
[3]
  Ki: > 5 µM
[4]
  IC50: 5.4 µM

## c1ccc2cc(CN(C3CCC3)C3CCNCC3)ccc2c1
[1]
  IC50: 0.002 µM
[2]
  IC50: 0.21 µM
[4]
  IC50: 1.5 µM

## CCCCN(C1CCNCC1)S(=O)(=O)c1ccc2ccccc2c1
[1]
  IC50: 0.014 µM
[2]
  IC50: 19 µM
[3]
  Ki: 0.716 µM
[4]
  IC50: 40 µM

## CCCCN([C@H]1CCNC1)S(=O)(=O)c1ccc2ccccc2c1
[1]
  IC50: 0.016 µM
[2]
  IC50: > 30 µM
[3]
  Ki: 0.412 µM
[4]
  IC50: 5.6 µM

## c1ccc2cc(OCC3CCNC3)ccc2c1 (racemic)
[1]
  IC50: 0.025 µM
[2]
  IC50: 1 µM
[3]
  Ki: > 5.5 µM
[4]
  IC50: 1.4 µM

## COCC(Oc1ccc2ccccc2c1)C1CCNCC1 (racemic)
[1]
  IC50: 0.005 µM
[4]
  IC50: 0.827 µM
[5]
  Ki: > 10 µM

## c1ccc2cc(COC3CCNCC3)ccc2c1 [LITOXETINE]
[1]
  IC50: 0.006 µM
[2]
  IC50: 1.3 µM
[4]
  IC50: 6.5 µM
